Assay results: the NIST ThermoML archive (doi:10.1016/j.jct.2012.12.025)
± gives the expanded uncertainty stated by the source.

Test: not given
Details: 298.15 K; 101.33 kPa; Liquid; Pycnometric method
In the case of COC(=O)OC [dimethyl carbonate], the mass density is reported as 1070 ± 100 kg/m3. Work on CCOC(=O)OC [ethyl methyl carbonate] yielded a mass density of 1010 ± 100 kg/m3. In the case of CCOC(=O)OCC [diethyl carbonate], the mass density is reported as 970 ± 100 kg/m3. O=C1OCCO1 [ethylene carbonate] showed a mass density of 1350 ± 100 kg/m3.

Test: cn = amount concentration of the nth substance listed, in mol/dm3
Details: 298.15 K; 101 kPa; Liquid; Pycnometric method; c1 = 1
Work on F[P-](F)(F)(F)(F)F.[Li+] [lithium hexafluorophosphate] + O=C1OCCO1 yielded a mass density of 1400 ± 100 kg/m3. For F[P-](F)(F)(F)(F)F.[Li+] [lithium hexafluorophosphate] + COC(=O)OC, the mass density was 1140 ± 100 kg/m3. O=S(=O)([N-]S(=O)(=O)C(F)(F)F)C(F)(F)F.[Li+] [lithium bis((trifluoromethyl)sulfonyl)amide] + CCOC(=O)OCC gave a mass density of 1100 ± 100 kg/m3. F[P-](F)(F)(F)(F)F.[Li+] [lithium hexafluorophosphate] + CCOC(=O)OCC gave a mass density of 1050 ± 100 kg/m3. In the case of O=S(=O)([N-]S(=O)(=O)C(F)(F)F)C(F)(F)F.[Li+] [lithium bis((trifluoromethyl)sulfonyl)amide] + O=C1OCCO1, the mass density is reported as 1420 ± 100 kg/m3. F[P-](F)(F)(F)(F)F.[Li+] [lithium hexafluorophosphate] + CCOC(=O)OC gave a mass density of 1090 ± 100 kg/m3. For O=S(=O)([N-]S(=O)(=O)C(F)(F)F)C(F)(F)F.[Li+] [lithium bis((trifluoromethyl)sulfonyl)amide] + COC(=O)OC, the mass density was 1160 ± 100 kg/m3.

Same assay, conditions: 298.15 K; 101 kPa; Liquid; Pycnometric method; c2 = 1
Work on CCOC(=O)OC [ethyl methyl carbonate] + O=S(=O)([N-]S(=O)(=O)C(F)(F)F)C(F)(F)F.[Li+] yielded a mass density of 1130 ± 100 kg/m3.

Test: wn = mass fraction of the nth substance listed
Details: 298.15 K; 101 kPa; Liquid; Pycnometric method; w1 = 0.5
Molecule O=C1OCCO1 [ethylene carbonate] + CCOC(=O)OCC has a mass density of 1090 ± 100 kg/m3. Molecule O=C1OCCO1 [ethylene carbonate] + COC(=O)OC has a mass density of 1230 ± 100 kg/m3.

Same assay, conditions: 298.15 K; 101 kPa; Liquid; Pycnometric method; w2 = 0.5
Work on CCOC(=O)OC [ethyl methyl carbonate] + O=C1OCCO1 yielded a mass density of 1190 ± 100 kg/m3.
